The structures appear in SMILES notation.

The assay concerns the target T1, Recombinant full length human OGA enzyme (Homo sapiens, UniProt O60502).
T1 construct: Recombinant full length human OGA enzyme was purchased from Origene; purchased Origene
T1 sequence (O60502 1-916): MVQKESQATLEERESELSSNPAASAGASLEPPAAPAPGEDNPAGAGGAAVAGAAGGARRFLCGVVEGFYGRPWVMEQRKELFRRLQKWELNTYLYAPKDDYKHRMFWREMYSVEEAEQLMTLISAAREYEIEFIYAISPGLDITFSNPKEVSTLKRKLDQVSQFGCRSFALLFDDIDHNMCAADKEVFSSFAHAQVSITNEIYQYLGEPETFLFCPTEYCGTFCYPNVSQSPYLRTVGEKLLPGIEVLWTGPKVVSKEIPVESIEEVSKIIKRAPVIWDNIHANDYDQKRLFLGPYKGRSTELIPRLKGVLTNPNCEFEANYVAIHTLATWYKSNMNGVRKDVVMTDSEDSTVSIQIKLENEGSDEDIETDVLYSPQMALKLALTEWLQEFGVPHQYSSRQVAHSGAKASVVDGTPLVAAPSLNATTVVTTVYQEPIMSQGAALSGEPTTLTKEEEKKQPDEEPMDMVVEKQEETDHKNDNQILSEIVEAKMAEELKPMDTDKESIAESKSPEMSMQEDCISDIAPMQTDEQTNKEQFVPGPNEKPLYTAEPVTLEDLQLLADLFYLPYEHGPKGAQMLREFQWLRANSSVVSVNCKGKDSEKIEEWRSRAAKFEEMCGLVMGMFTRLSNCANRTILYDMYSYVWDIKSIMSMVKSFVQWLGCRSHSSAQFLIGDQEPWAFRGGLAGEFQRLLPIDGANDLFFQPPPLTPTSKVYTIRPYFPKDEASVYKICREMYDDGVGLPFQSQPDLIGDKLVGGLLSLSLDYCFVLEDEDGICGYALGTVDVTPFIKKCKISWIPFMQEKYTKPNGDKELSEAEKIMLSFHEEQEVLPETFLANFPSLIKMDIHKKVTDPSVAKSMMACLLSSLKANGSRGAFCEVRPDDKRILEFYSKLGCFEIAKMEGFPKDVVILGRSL
As to the kind of experiment: OGA enzyme inhibition biochemical assay. Particulars: 1 nM OGA, 100 μM 4-MUGlcNAc (Km), pH 6.4, 90 minutes at room temperature, 10-point dose-response from 20 μM. The method in brief:
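1 nM OGA with 100 μM 4-MUGlcNAc (Km) in McIlvaine buffer pH 6.4, 0.01% BSA, 90 min at room temperature; quenched with 3M glycine pH 10, fluorescence Ex 355/Em 460 nm. 10-point, 4-fold dilutions from 20 μM; 4-parameter variable-slope fit.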

As usually defined, the IC50 is the concentration at which inhibition is half-maximal. Take `CC(=O)Nc1ncc(CN2C[C@H](Oc3ccc4ccn(C)c4n3)C[C@@H]2C)s1` [Example 162, N-(5-(((2S,4R)-2-methyl-4-((1-methyl-1H-pyrrolo[2,3-b]pyridin-6-yl)oxy)pyrrolidin-1-yl)methyl)thiazol-2-yl)acetamide]: the IC50 was < 1 nM. With `CC(=O)Nc1nc(F)c(CN2C[C@H](Oc3ccc4ccn(C)c4n3)C[C@@H]2C)s1` [Example 163, N-(4-fluoro-5-(((2S,4R)-2-methyl-4-((1-methyl-1H-pyrrolo[2,3-b]pyridin-6-yl)oxy)pyrrolidin-1-yl)methyl)thiazol-2-yl)acetamide], the IC50 was < 1 nM. For `CC(=O)Nc1nc(F)c(CN2C[C@H](Oc3cnc4nccn4c3)C[C@@H]2C)s1` [Example 164, N-(4-fluoro-5-(((2S,4R)-4-(imidazo[1,2-a]pyrimidin-6-yloxy)-2-methylpyrrolidin-1-yl)methyl)thiazol-2-yl)acetamide], the concentration for half-maximal inhibition (IC50) is < 1 nM. Take `CC(=O)Nc1nc(F)c(CN2C[C@H](Oc3cnc4nncn4c3)C[C@@H]2C)s1` [Example 165, N-(5-(((2S,4R)-4-([1,2,4]triazolo[4,3-a]pyrimidin-6-yloxy)-2-methylpyrrolidin-1-yl)methyl)-4-fluorothiazol-2-yl)acetamide]: the IC50 is < 1 nM. As for `COc1ccc2ccc(O[C@@H]3C[C@H](C)N(Cc4cnc(NC(C)=O)s4)C3)nc2n1` [Example 166, N-(5-(((2S,4R)-4-((7-methoxy-1,8-naphthyridin-2-yl)oxy)-2-methylpyrrolidin-1-yl)methyl)thiazol-2-yl)acetamide], the IC50 is < 1 nM. In the case of `COc1ccc2ccc(O[C@@H]3C[C@H](C)N(Cc4sc(NC(C)=O)nc4F)C3)nc2n1` [Example 167, N-(4-fluoro-5-(((2S,4R)-4-((7-methoxy-1,8-naphthyridin-2-yl)oxy)-2-methylpyrrolidin-1-yl)methyl)thiazol-2-yl)acetamide], the IC50 was < 1 nM.

As to `CC(=O)Nc1ncc(CN2C[C@H](Oc3cnc4nc(C)oc4c3)C[C@@H]2C)s1` [Example 168, N-(5-(((2S,4R)-2-Methyl-4-((2-methyloxazolo[4,5-b]pyridin-6-yl)oxy)pyrrolidin-1-yl)methyl)thiazol-2-yl)acetamide], the half-maximal inhibitory concentration (IC50) was < 1 nM. Regarding `CC(=O)Nc1nc(F)c(CN2C[C@H](Oc3cnc4nc(C)oc4c3)C[C@@H]2C)s1` [Example 169, N-(4-Fluoro-5-(((2S,4R)-2-methyl-4-((2-methyloxazolo[4,5-b]pyridin-6-yl)oxy)pyrrolidin-1-yl)methyl)thiazol-2-yl)acetamide], the half-inhibitory concentration (IC50) was < 1 nM. With `CC(=O)Nc1nc(F)c(CN2C[C@H](Oc3cnc4ccnn4c3)C[C@@H]2C)s1` [Example 170, N-(4-fluoro-5-(((2S,4R)-2-methyl-4-(pyrazolo[1,5-a]pyrimidin-6-yloxy)pyrrolidin-1-yl)methyl)thiazol-2-yl)acetamide], the concentration for half-maximal inhibition (IC50) was < 1 nM.

Regarding `CC(=O)Nc1nc(F)c(CN2C[C@H](Oc3cn4nccc4cn3)C[C@@H]2C)s1` [Example 171, N-(4-fluoro-5-(((2S,4R)-2-methyl-4-(pyrazolo[1,5-a]pyrazin-6-yloxy)pyrrolidin-1-yl)methyl)thiazol-2-yl)acetamide], the IC50 is < 1 nM. With `CC(=O)Nc1nc(F)c(CN2C[C@H](Oc3ccc4ncnn4c3)C[C@@H]2C)s1` [Example 172, N-(5-(((2S,4R)-4-([1,2,4]triazolo[1,5-a]pyridin-6-yloxy)-2-methylpyrrolidin-1-yl)methyl)-4-fluorothiazol-2-yl)acetamide], the IC50 was < 1 nM. Regarding `CC(=O)Nc1nc(F)c(CN2C[C@H](Oc3ccn4nc(C)nc4c3)C[C@@H]2C)s1` [Example 173, N-(4-fluoro-5-(((2S,4R)-2-methyl-4-((2-methyl-[1,2,4]triazolo[1,5-a]pyridin-7-yl)oxy)pyrrolidin-1-yl)methyl)thiazol-2-yl)acetamide], the IC50 is < 1 nM. With `CC(=O)Nc1nc(F)c(CN2C[C@H](Oc3nnc4cnccn34)C[C@@H]2C)s1` [Example 174, N-(5-(((2S,4R)-4-([1,2,4]triazolo[4,3-a]pyrazin-3-yloxy)-2-methylpyrrolidin-1-yl)methyl)-4-fluorothiazol-2-yl)acetamide], the 50% inhibitory concentration (IC50) was 2.6 nM.
